# According to patent publication US9073880B2, “2-(2-phenylethenyl) 1,3-benzodiazepine derivatives useful for the treatment of cancer” (Yissum Research Development Company of the Hebrew …, priority 2010, dated 2015):
# Assays:
# Type in all cases: cell-based
# [1] = test system: human breast cancer MDA-MB-468 cells; assay: Cell proliferation, MDA-MB-468 (Example 4); conditions: MDA-MB-468, breast cancer, compound in 2-hydroxypropyl-β-cyclodextrin
# Protocol: (§1) Human ovary cancer A2780 cells lines were seeded at a density of 5000 cells/well, human melanoma A375 cells were plated at a density of 2,500 cells/well, human colon carcinoma HCT15 cells were plated at a density of 3,000 cells/well, human prostate carcinoma PC3 cells were plated at a density of 1,500 cells/well, human breast carcinoma MCF7 cells were plated at a density of 5,000 cells/well, human breast carcinoma MDA MB 468 cells were plated at a density of 6,000 cells/well, human myeloma U266, RPMI8226 and CAG cells were plated at a density of 10,000 cells/well. All cells were plated in 96-well plates in 90 μl growth medium containing 10% FCS, 100 units/ml penicillin and 100 μg/ml streptomycin. Compound 3 was added a day later in […] of 1% DMSO in DDW to obtain final concentrations of 0, 0.1, 0.3, 1, 3, and 10 μM. The final concentration of DMSO (0.1% DMSO) was kept constant in all samples. Following exposure of the cells to compound 3 for 72 hours at 37° C., adhered cells were fixed in 0.5% gluteraldehyde in medium for 10 min, washed three times with DDW, once with 0.1M sodium borate buffer pH 8.5 and stained with 1% methylene blue dissolved in 0.1M borate buffer solution for 60 min. Excess dye was washed out and cell-bound dye was eluted with 200 μl/well of 0.1M HCl. The optical density values were read at 630 nm in ELISA plate reader. Non-adhered cells were exposed to WST-1 reagent for 5 hours following 72 hours treatment with the inhibitors, and optical density values were read at 630 nm in ELISA plate reader. The data was analyzed in Microsoft Excel, using the vehicle control as 100% proliferation. The assays were performed in triplicates. The values of IC50 were derived from the dose-dependent growth curves obtained.
# (§2) Cell proliferation assay was performed as described in Example 2. […]
# [2] = test system: human hepatocarcinoma HepG2 cells; assay: Cell proliferation, HepG2 (Example 4); conditions: compound in 2-hydroxypropyl-β-cyclodextrin
# Protocol: as §1, §2
# [3] = test system: human multiple myeloma MM1S cells; assay: Cell proliferation, MM1S (Example 4); conditions: MM1.S, compound in 2-hydroxypropyl-β-cyclodextrin
# Protocol: as §1
# (§3) Cell proliferation assay was performed as described in Example 2. The following cell line were plated in 96-well plates in 90 μl growth medium containing 10% FCS, 100 units/ml penicillin and 100 μg/ml streptomycin: human ovary cancer A2780 cells (4500 cells/well), human melanoma A375 (1500 cells/well) and YUMAC (2500 cells/well) cells, human colon carcinoma HCT15 (3000 cells/well) and HCT116 (2000 cells/well) cells, human prostate carcinoma PC3 (3000 cells/well), PC3MM2 (3500 cells/well) and DU145 (300 cells/well) cells, human hepatocarcinoma HepG2 (3000 cells/well), human Ewing sarcoma SK-ES-1 (4,500 cells/well), human glioblastoma U138MG (2,000 cells/well), human breast cancer T47D (4000 cells/well) and MDA-MB-468 (6000 cells/well) cells, human small cell lung carcinoma NCI-H1975 (5000 cells/well) cells, human osteosarcoma Saos-2 (5000 cells/well) cells, human pancreatic cancer ASPC (2500 cells/well) cells, human bladder carcinoma T24P (1000 cells/well) cells, human gastric cancer NCI-N87 (5000 cells/well) cells, human lymphoma KARPAS (5,000 cells/well) cells, human leukemia K562 (5,000 cells/well) cells and human multiple myeloma MM1S (10,000 cells/well), U266 (10,000 cells/well) and CAG (5,000 cells/well). Compounds 2-5 and 7-8 were added a day later in 10 μl of 0.7% 2-hydroxypropyl-β-cyclodextrin to obtain final concentrations of 0, 0.1, 0.3, 1, 3 and 10 μM.
# Compounds 2-5 and 7-8 of the present invention were tested for their inhibitory potential in cell proliferation assay. Human ovary cancer A2780 cells, human melanoma A375 and YUMAC cells, human colon carcinoma HCT15 and HCT116 cells, human prostate carcinoma PC3, PC3MM2 and DU145 cells, human hepatocarcinoma HepG2 cells, human Ewing sarcoma SK-ES-1 cells, human glioblastoma U138MG cells, human breast cancer T47D and MDA-MB-468 cells, human small cell lung carcinoma NCI-H1975 cells, human osteosarcoma Saos-2 cells, human pancreatic cancer ASPC cells, human bladder cancer T24P cells, human gastric cancer cells, human lymphoma KARPAS cells, human leukemia K562 cells, and human multiple myeloma MM1S, CAG and U266 cells, were exposed to increasing concentrations of compounds 2-5 and 7-8. […]
# [4] = test system: Human ovary cancer A2780 cells; assay: Cell proliferation, A2780 (Example 4); conditions: compound in 2-hydroxypropyl-β-cyclodextrin
# Protocol: as §1, §2
# [5] = test system: human prostate carcinoma DU145 cells; assay: Cell proliferation, DU145 (Example 4); conditions: DU-145, DU145, prostate cancer, compound in 2-hydroxypropyl-β-cyclodextrin
# Protocol: as §1, §2
# [6] = test system: human NCI-H1975 cells; assay: Cell proliferation, NCI-H1975 (Example 4); conditions: NCI-H1975, SCLC, compound in 2-hydroxypropyl-β-cyclodextrin
# Protocol: as §1, §2
# [7] = test system: human lymphoma KARPAS cells; assay: Cell proliferation, KARPAS (Example 4); conditions: compound in 2-hydroxypropyl-β-cyclodextrin
# Protocol: as §1, §2
# [8] = test system: human bladder carcinoma T24P cells; assay: Cell proliferation, T24P (Example 4); conditions: compound in 2-hydroxypropyl-β-cyclodextrin
# Protocol: as §1, §2
# [9] = test system: human glioblastoma U138MG cells; assay: Cell proliferation, U138MG (Example 4); conditions: U138-MG, compound in 2-hydroxypropyl-β-cyclodextrin
# Protocol: as §1, §2
# [10] = test system: human osteosarcoma Saos-2 cells; assay: Cell proliferation, Saos-2 (Example 4); conditions: Saos-2, osteosarcoma, compound in 2-hydroxypropyl-β-cyclodextrin
# Protocol: as §1, §2
# [11] = test system: human prostate carcinoma PC3MM2 cells; assay: Cell proliferation, PC3MM2 (Example 4); conditions: PC3MM2, prostate cancer, compound in 2-hydroxypropyl-β-cyclodextrin
# Protocol: as §1, §2
# [12] = test system: human breast cancer T47D cells; assay: Cell proliferation, T47D (Example 4); conditions: compound in 2-hydroxypropyl-β-cyclodextrin
# Protocol: as §1, §2
# [13] = test system: human leukemia K562 cells; assay: Cell proliferation, K562 (Example 4); conditions: compound in 2-hydroxypropyl-β-cyclodextrin
# Protocol: as §1, §3
# (§4) Compounds 2-5 and 7-8 of the present invention were tested for their inhibitory potential in cell proliferation assay. […]
# [14] = test system: human melanoma YUMAC cells; assay: Cell proliferation, YUMAC (Example 4); conditions: compound in 2-hydroxypropyl-β-cyclodextrin
# Protocol: as §1, §3, §4
# [15] = test system: human Ewing sarcoma SK-ES-1 cells; assay: Cell proliferation, SK-ES-1 (Example 4); conditions: SK-ES1, SK-ES-1, Ewing sarcoma, compound in 2-hydroxypropyl-β-cyclodextrin
# Protocol: as §1, §2
# [16] = test system: human pancreatic cancer ASPC cells; assay: Cell proliferation, ASPC (Example 4); conditions: compound in 2-hydroxypropyl-β-cyclodextrin
# Protocol: as §1, §3, §4
# [17] = test system: human gastric cancer NCI-N87 cells; assay: Cell proliferation, NCI-N87 (Example 4); conditions: compound in 2-hydroxypropyl-β-cyclodextrin
# Protocol: as §1, §2
# [18] = test system: human colon carcinoma HCT116 cells; assay: Cell proliferation, HCT116 (Example 4); conditions: HCT-116, HCT116, colon cancer, compound in 2-hydroxypropyl-β-cyclodextrin
# Protocol: as §1, §3, §4
# [19] = test system: human multiple myeloma CAG cells; assay: Cell proliferation, CAG (Example 4); conditions: compound in 2-hydroxypropyl-β-cyclodextrin
# Protocol: as §1, §2
SMILES,IC50 [1],IC50 [2],IC50 [3],IC50 [4],IC50 [5],IC50 [6],IC50 [7],IC50 [8],IC50 [9],IC50 [10],IC50 [11],IC50 [12],IC50 [13],IC50 [14],IC50 [15],IC50 [16],IC50 [17],IC50 [18],IC50 [19]
N#C/C(=C\c1cc(O)c(O)c(I)c1)c1ncc2cc(O)c(=O)c(O)c-2s1 [Compound 2],1200 nM,2800 nM,2000 nM,600 nM,–,–,–,–,–,–,–,–,–,–,–,–,–,–,–
O=c1c(O)cc2cnc(/C=C/c3cc(O)c(O)c(I)c3)sc-2c1O [Compound 4],2200 nM,2700 nM,700 nM,300 nM,2000 nM,1100 nM,1500 nM,3200 nM,300 nM,2000 nM,900 nM,700 nM,900 nM,500 nM,200 nM,18500 nM,4800 nM,700 nM,3000 nM
O=c1c(O)cc2cnc(/C=C/c3cc(O)c(O)cc3Br)sc-2c1O [Compound 7],–,–,200 nM,–,2300 nM,2600 nM,1800 nM,4500 nM,800 nM,2700 nM,–,–,1800 nM,500 nM,200 nM,13300 nM,8400 nM,1400 nM,4900 nM
O=c1c(O)c2sc(/C=C/c3cc(O)c(O)c(Br)c3)ncc-2c(Br)c1O [Compound 8],–,–,500 nM,–,–,–,–,–,–,–,–,–,800 nM,500 nM,–,17700 nM,–,800 nM,–
